Target: interaction of human SOS1 (SOS1) with human K-RasG12C (Homo sapiens (Human), UniProt Q07889)
Assay: Biochemical assay: hK-RasG12C interaction assay with hSOS1 (HTRF)
Assay type: binding
Conditions: GST-hK-RasG12C with His-hSOS1, 60 min incubation at 20° C., mean, read-out: K-RasG12C - SOS interaction assay IC50 (mean)
Outline: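 Compounds, duplicates at 11 concentrations from 0.073 nM to 20 µM, were preincubated 2 min with 10 nM GST-hK-RasG12C, then 20 nM His-hSOS1 was added, all at 20 °C. After 60 min, 665/620 nm HTRF ratio normalized to DMSO and SOS1-free controls; IC50 by 4-parameter fit.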

Chain of interaction of human SOS1 (SOS1) with human K-RasG12C (Q07889 564-1049 limits assumed): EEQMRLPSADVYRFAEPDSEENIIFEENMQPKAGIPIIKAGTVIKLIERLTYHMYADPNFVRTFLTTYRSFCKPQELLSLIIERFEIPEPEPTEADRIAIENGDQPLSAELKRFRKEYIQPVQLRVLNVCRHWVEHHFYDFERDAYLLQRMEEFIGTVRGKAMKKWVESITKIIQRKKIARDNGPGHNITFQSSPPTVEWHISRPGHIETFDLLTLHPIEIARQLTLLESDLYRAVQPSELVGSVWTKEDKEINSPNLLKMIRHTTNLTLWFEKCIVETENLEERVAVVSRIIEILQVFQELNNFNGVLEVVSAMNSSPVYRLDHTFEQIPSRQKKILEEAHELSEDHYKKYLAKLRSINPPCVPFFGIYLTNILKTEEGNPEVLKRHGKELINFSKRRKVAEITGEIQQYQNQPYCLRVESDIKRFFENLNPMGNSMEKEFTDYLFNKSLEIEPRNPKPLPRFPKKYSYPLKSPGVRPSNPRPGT

| Structure (SMILES) | IC50 [nM] |
| --- | --- |
| Cc1nc(N[C@H](C)c2cccc(C(F)F)c2F)c2cc(P3(=O)CCN(C(=O)[C@H](C)O)CC3)ncc2n1 [Example 157, 4-[4-{{(1R)-1-[3-(difluoromethyl)-2-fluorophenyl]ethyl}amino)-2-methylpyrido[3,4-d]pyrimidin-6-yl]-1-[(2S)-2-hydroxypropanoyl]-1,4lambda^5-azaphosphinan-4-one] | 5.04 |
| Cc1nc(N[C@H](C)c2cccc(C(F)(F)F)c2C)c2cc(P(C)(C)=O)c(C)nc2n1 [Example 17, 6-(dimethylphosphoryl)-2,7-dimethyl-N-{(1R)-1-[2-methyl-3-(trifluoromethyl)phenyl]ethyl}pyrido[2,3-d]pyrimidin-4-amine] | 10.6 |
| CNC(=O)C(F)(F)c1cccc([C@@H](C)Nc2nc(C)nc3cnc(P4(=O)CCN(C(C)=O)CC4)cc23)c1F [Example 47, 2-{3-[(1R)-1-{[6-(1-acetyl-4-oxo-1,4lambda^5-azaphosphinan-4-yl)-2-methylpyrido[3,4-d]pyrimidin-4-yl]amino}ethyl]-2-fluorophenyl}-2,2-difluoro-N-methylacetamide] | 13.8 |
| Cc1nc(N[C@H](C)c2cccc(C(F)F)c2F)c2cc(P3(=O)CCN(C(=O)C(C)C)CC3)ncc2n1 [Example 153, 4-[4-({(1R)-1-[3-(difluoromethyl)-2-fluorophenyl]ethyl}amino)-2-methylpyrido[3,4-d]pyrimidin-6-yl]-1-(2-methylpropanoyl)-1,4lambda^5-azaphosphinan-4-one] | 7.4 |
| COCC(=O)N1CCP(=O)(c2cc3c(N[C@H](C)c4cccc(C(F)F)c4F)nc(C)nc3cn2)CC1 [Example 154, 4-[4-{{(1R)-1-[3-(difluoromethyl)-2-fluorophenyl]ethyl}amino)-2-methylpyrido[3,4-d]pyrimidin-6-yl]-1-(methoxyacetyl)-1,4lambda^5-azaphosphinan-4-one] | 6.15 |
| Cc1nc(N[C@H](C)c2cccc(C(F)(F)F)c2C)c2cc(P3(=O)CCN(C(=O)[C@@H](C)O)CC3)ncc2n1 [Example 166, 1-[(2R)-2-hydroxypropanoyl]-4-[2-methyl-4-{{(1R)-1-[2-methyl-3-(trifluoromethyl)phenyl]ethyl}amino)pyrido[3,4-d]pyrimidin-6-yl]-1,4lambda^5-azaphosphinan-4-one] | 4.83 |
| Cc1nc(N[C@H](C)c2cccc(C(F)(F)F)c2C)c2cc(P3(=O)CCN(Cc4ccccc4)CC3)ncc2n1 [Example 5, 1-benzyl-4-[2-methyl-4-({(1R)-1-[2-methyl-3-(trifluoromethyl)phenyl]ethyl}amino)pyrido[3,4-d]pyrimidin-6-yl]-1,4lambda^5-azaphosphinan-4-one] | 261 |
| Cc1nc(N[C@H](C)c2cccc(C(F)(F)F)c2Cl)c2cc(P3(=O)CCN(C(=O)C(F)F)CC3)ncc2n1 [Example 204] | 5.96 |
| Cc1nc(N[C@H](C)c2cccc(C(F)(F)F)c2C)c2cc(P3(=O)CCN(C=O)CC3)ncc2n1 [Example 31, 4-[2-methyl-4-({(1R)-1-[2-methyl-3-(trifluoromethyl)phenyl]ethyl}amino)pyrido[3,4-d]pyrimidin-6-yl]-4-oxo-1,4lambda^5-azaphosphinane-1-carbaldehyde] | 6.37 |
| CC(=O)N1CCP(=O)(c2cc3c(N[C@H](C)c4cccc(C(F)(F)F)c4C)nc(Cl)nc3cn2)CC1 [Example 196] | 2.38 |
| Cc1nc(N[C@H](C)c2cccc(C(F)F)c2F)c2cc(P3(=O)CCN(Cc4ccccc4)CC3)ncc2n1 [Example 8, 1-benzyl-4-[4-({(1R)-1-[3-(difluoromethyl)-2-fluorophenyl]ethyl}amino)-2-methylpyrido[3,4-d]pyrimidin-6-yl]-1,4lambda^5-azaphosphinan-4-one] | 94 |
| CO[C@@H](C)C(=O)N1CCP(=O)(c2cc3c(N[C@H](C)c4cccc(C(F)F)c4F)nc(C)nc3cn2)CC1 [Example 149, 4-[4-{{(1R)-1-[3-(difluoromethyl)-2-fluorophenyl]ethyl}amino)-2-methylpyrido[3,4-d]pyrimidin-6-yl]-1-[(2S)-2-methoxypropanoyl]-1,4lambda^5-azaphosphinan-4-one] | 18 |
| Cc1nc(N[C@H](C)c2cc(N)cc(C(F)(F)F)c2)c2cc(P3(=O)CCCC3)ncc2n1 [Example 95, 1-[4-{{(1R)-1-[3-amino-5-(trifluoromethyl)phenyl]ethyl}amino)-2-methylpyrido[3,4-d]pyrimidin-6-yl]-1lambda^5-phospholan-1-one] | 23.9 |
| CC(=O)N1CCP(=O)(c2cc3c(N[C@H](C)c4cccc(C(F)(F)F)c4C)nc(C)nc3cn2)CC1 [Example 7, 1-acetyl-4-[2-methyl-4-({(1R)-1-[2-methyl-3-(trifluoromethyl)phenyl]ethyl}amino)pyrido[3,4-d]pyrimidin-6-yl]-1,4lambda^5-azaphosphinan-4-one] | 6.24 |
| Cc1nc(N[C@H](C)c2cccc(C(F)(F)F)c2C)c2cc(P3(=O)CCN(Cc4ccccc4)CC3)ccc2n1 [Example 105, 1-benzyl-4-[2-methyl-4-({(1R)-1-[2-methyl-3-(trifluoromethyl)phenyl]ethyl}amino)quinazolin-6-yl]-1,4lambda^5-azaphosphinan-4-one] | 117 |
| Cc1nc(N[C@H](C)c2cccc(C(F)(F)F)c2C)c2cc(P(C)(C)=O)c(C(F)(F)F)nc2n1 [Example 22, 6-(dimethylphosphoryl)-2-methyl-N-{(1R)-1-[2-methyl-3-(trifluoromethyl)phenyl]ethyl}-7-(trifluoromethyl)pyrido[2,3-d]pyrimidin-4-amine] | 18.7 |

More lines, now with the values ahead:

| IC50 [nM] | Structure (SMILES) |
| --- | --- |
| 16.7 | Cc1nc(N[C@H](C)c2cccc(C(F)(F)CO)c2F)c2cc(P(C)(C)=O)nc(C)c2n1 [Example 124, 2-{3-[(1R)-1-{[6-(dimethylphosphoryl)-2,8-dimethylpyrido[3,4-d]pyrimidin-4-yl]amino}ethyl]-2-fluorophenyl}-2,2-difluoroethan-1-ol] |
| 13.6 | Cc1nc(N[C@H](C)c2cc(N)cc(C(F)(F)F)c2)c2cc(P(C)(C)=O)ncc2n1 [Example 97, N-{(1R)-1-[3-amino-5-(trifluoromethyl)phenyl]ethyl}-6-(dimethylphosphoryl)-2-methylpyrido[3,4-d]pyrimidin-4-amine] |
| 31 | Cc1nc(N[C@H](C)c2cccc(C(F)(F)C(C)O)c2F)c2cc(P(C)(=O)C(C)C)ncc2n1 (single isomer, unassigned) [Example 83, (2R*)-1,1-difluoro-1-{2-fluoro-3-[(1R)-1-({2-methyl-6-[methyl(propan-2-yl)phosphoryl]pyrido[3,4-d]pyrimidin-4-yl}amino)ethyl]phenyl}propan-2-ol] |
| 7.85 | Cc1nc(N[C@H](C)c2cccc(C(F)(F)[C@@H](C)O)c2F)c2cc(P(C)(C)=O)ncc2n1 (relative stereo) [Example 113, (2R*)-1-{3-[(1R)-1-{[6-(dimethylphosphoryl)-2-methylpyrido[3,4-d]pyrimidin-4-yl]amino}ethyl]-2-fluorophenyl}-1,1-difluoropropan-2-ol] |
| 132 | Cc1nc(N[C@H](C)c2cccc(C(F)F)c2F)c2cc(P(=O)(C(C)C)C(C)C)c(C)nc2n1 [Example 129, N-{(1R)-1-[3-(difluoromethyl)-2-fluorophenyl]ethyl}-6-[di(propan-2-yl)phosphoryl]-2,7-dimethylpyrido[2,3-d]pyrimidin-4-amine] |
| 20.6 | Cc1nc(N[C@H](C)c2cccc(C(F)(F)F)c2C)c2cc(P(C)(C)=O)ncc2n1 [Example 1, 6-(dimethylphosphoryl)-2-methyl-N-{(1R)-1-[2-methyl-3-(trifluoromethyl)phenyl]ethyl}pyrido[3,4-d]pyrimidin-4-amine] |
| 87.1 | COC(C)(C)C(F)(F)c1cccc([C@@H](C)Nc2nc(C)nc3cnc(P(C)(C)=O)cc23)c1F [Example 121, N-{(1R)-1-[3-(1,1-difluoro-2-methoxy-2-methylpropyl)-2-fluorophenyl]ethyl}-6-(dimethylphosphoryl)-2-methylpyrido[3,4-d]pyrimidin-4-amine] |
| 10.7 | CCc1nc(P(C)(C)=O)cc2c(N[C@H](C)c3cccc(C(F)(F)C(O)CC)c3F)nc(C)nc12 (mixture of isomers) [Example 38, (2RS)-1-{3-[(1R)-1-{[6-(dimethylphosphoryl)-8-ethyl-2-methylpyrido[3,4-d]pyrimidin-4-yl]amino}ethyl]-2-fluorophenyl}-1,1-difluorobutan-2-ol] |
| 14.3 | Cc1nc(N[C@H](C)c2cccc(C(F)(F)C(C)(C)O)c2F)c2cc(P(C)(C)=O)c(C)nc2n1 [Example 19, 1-{3-[(1R)-1-{[6-(dimethylphosphoryl)-2,7-dimethylpyrido[2,3-d]pyrimidin-4-yl]amino}ethyl]-2-fluorophenyl}-1,1-difluoro-2-methylpropan-2-ol] |
| 6.06 | CCC(O)C(F)(F)c1cccc([C@@H](C)Nc2nc(C)nc3cnc(P(C)(C)=O)cc23)c1F (single isomer, unassigned) [Example 89, (2R*)-1-{3-[(1R)-1-{[6-(dimethylphosphoryl)-2-methylpyrido[3,4-d]pyrimidin-4-yl]amino}ethyl]-2-fluorophenyl}-1,1-difluorobutan-2-ol] |
| 12.8 | Cc1nc(N[C@H](C)c2cccc(C(F)(F)C(C)(C)O)c2F)c2cc(P3(=O)CCCC3)ncc2n1 [Example 4, 1-[4-({(1R)-1-[3-(1,1-difluoro-2-hydroxy-2-methylpropyl)-2-fluorophenyl]ethyl}amino)-2-methylpyrido[3,4-d]pyrimidin-6-yl]-1lambda^5-phospholan-1-one] |
| 7.06 | Cc1nc(N[C@H](C)c2cccc(C(F)(F)CO)c2F)c2cc(P(C)(C)=O)ccc2n1 [Example 33, 2-{3-[(1R)-1-{[6-(dimethylphosphoryl)-2-methylquinazolin-4-yl]amino}ethyl]-2-fluorophenyl}-2,2-difluoroethan-1-ol] |
| 4.1 | CC(=O)N1CCP(=O)(c2cc3c(N[C@H](C)c4cccc(C(F)(F)C(C)(C)O)c4F)nc(C)nc3cn2)CC1 [Example 193] |

— patent US20240247015A1, “PHOSPHORUS DERIVATIVES AS NOVEL SOS1 INHIBITORS” (BAYER AKTIENGESELLSCHAFT, priority 2021, published 2024)
